Activity calls are given as the source filed them.

AC50, EC50 and IC50 data for five compounds are collected here from ChEMBL document CHEMBL1201862, “PubChem BioAssay data set” (2004).

A short description of assay [1]: HepG2 cell cytotoxicity, dose response, cytotoxicity control for Shn3 inhibitor project, CellTiter-Glo, cherry-picked (AID 624134). Type of assay: functional, cell-based. On the technique in general: ATP-based viability assays read luminescence as a measure of living cells.
Assay [2] can be described thus: cells. Type of assay: functional, cell-based.
Assay [3] is described as follows: control 3'UTR Renilla luciferase suppression, dose response, counter-screen for Shn3 inhibitor project, cell-based, Clone20-Shn3RL, cherry-picked (AID 624133). Type of assay: functional. On the technique in general: A counterscreen serves to expose hits that act by an unwanted route or on another target.
A further assay addresses T1, Caspase-6 (Homo sapiens, UniProt P55212).
T1 sequence (P55212 whole entry): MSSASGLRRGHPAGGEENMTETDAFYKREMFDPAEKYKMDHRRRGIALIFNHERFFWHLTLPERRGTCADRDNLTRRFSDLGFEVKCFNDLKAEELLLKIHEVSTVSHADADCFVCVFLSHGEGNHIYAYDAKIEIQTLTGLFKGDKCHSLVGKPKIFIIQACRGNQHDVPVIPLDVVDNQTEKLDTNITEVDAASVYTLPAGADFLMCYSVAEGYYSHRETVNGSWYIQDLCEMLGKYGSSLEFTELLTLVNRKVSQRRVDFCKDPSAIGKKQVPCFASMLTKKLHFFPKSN
Briefly: human caspase-6 inhibitors, dose response, biochemical, VEID-R110 fluorescence, cherry-pick (AID 720632).

The target of assay [4] is T2, Histone-lysine N-methyltransferase NSD2 (Homo sapiens, UniProt O96028).
T2 sequence (O96028 whole entry): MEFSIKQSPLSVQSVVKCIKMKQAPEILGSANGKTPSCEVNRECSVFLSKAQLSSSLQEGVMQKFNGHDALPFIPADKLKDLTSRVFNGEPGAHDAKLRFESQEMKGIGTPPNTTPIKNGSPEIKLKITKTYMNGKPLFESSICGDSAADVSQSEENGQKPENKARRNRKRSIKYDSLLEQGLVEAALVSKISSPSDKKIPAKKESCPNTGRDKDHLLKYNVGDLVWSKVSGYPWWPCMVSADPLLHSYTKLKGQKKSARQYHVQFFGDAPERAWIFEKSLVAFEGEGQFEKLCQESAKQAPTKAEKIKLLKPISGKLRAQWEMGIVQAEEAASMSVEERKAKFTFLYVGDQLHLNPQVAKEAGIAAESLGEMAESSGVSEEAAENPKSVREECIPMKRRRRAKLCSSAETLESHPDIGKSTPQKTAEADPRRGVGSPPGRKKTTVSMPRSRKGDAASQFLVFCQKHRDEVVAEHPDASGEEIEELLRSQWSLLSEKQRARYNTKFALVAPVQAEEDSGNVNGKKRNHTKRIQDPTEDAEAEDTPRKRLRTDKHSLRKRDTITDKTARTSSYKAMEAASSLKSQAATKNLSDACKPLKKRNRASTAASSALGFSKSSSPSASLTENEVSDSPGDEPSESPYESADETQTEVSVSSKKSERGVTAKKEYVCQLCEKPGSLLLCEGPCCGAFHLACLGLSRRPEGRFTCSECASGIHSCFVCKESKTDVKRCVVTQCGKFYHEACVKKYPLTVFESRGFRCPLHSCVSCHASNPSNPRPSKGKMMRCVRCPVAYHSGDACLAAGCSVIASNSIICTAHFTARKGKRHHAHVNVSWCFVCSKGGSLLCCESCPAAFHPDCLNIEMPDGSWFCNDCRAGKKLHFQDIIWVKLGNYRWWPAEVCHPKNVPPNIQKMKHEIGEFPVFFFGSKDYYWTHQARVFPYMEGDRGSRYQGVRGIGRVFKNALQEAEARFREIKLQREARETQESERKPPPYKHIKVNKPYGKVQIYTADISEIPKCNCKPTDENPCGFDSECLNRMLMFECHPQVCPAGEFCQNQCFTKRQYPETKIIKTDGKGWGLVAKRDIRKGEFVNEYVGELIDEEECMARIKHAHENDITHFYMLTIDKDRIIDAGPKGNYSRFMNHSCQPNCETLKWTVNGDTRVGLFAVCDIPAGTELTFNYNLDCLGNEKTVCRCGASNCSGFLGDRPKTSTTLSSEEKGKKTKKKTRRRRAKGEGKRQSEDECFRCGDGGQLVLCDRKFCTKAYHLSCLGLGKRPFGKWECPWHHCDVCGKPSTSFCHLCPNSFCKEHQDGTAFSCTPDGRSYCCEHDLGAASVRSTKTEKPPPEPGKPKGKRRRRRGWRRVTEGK
Type of assay: biochemical.

Assay [5] addresses FAD-linked sulfhydryl oxidase ALR (Homo sapiens, UniProt P55789). Kind of assay: inhibitors of human ALR sulfhydryl oxidase, dose response, biochemical, H2O2 detection, luminescence, cherry-pick (AID 493248).
Assay [6] concerns the target T3, Zinc finger protein mex-5 (Caenorhabditis elegans, UniProt Q9XUB2).
T3 sequence (Q9XUB2 whole entry): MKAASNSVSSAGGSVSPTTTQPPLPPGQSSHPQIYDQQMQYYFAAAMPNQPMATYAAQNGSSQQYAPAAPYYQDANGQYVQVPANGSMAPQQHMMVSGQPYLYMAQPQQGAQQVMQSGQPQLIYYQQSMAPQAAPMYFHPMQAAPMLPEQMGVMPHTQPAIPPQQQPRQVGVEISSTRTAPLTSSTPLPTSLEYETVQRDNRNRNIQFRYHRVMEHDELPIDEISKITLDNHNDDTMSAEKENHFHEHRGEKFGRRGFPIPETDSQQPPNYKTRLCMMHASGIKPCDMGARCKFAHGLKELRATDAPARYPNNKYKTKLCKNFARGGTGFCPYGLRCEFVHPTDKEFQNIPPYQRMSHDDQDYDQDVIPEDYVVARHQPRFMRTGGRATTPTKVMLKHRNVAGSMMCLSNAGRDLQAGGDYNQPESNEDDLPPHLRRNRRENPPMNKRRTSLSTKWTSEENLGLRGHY
Kind of assay: MEX-5/TCR-2 RNA interaction inhibitors, dose response, biochemical, C. elegans, fluorescence polarization (AID 1960). On the technique in general: In fluorescence polarisation assays a small probe gives low polarisation when free and higher when bound to something large.

The target in assay [7] is T4, RNA-binding protein pos-1 (Caenorhabditis elegans, UniProt G5EF15).
T4 sequence (G5EF15 whole entry): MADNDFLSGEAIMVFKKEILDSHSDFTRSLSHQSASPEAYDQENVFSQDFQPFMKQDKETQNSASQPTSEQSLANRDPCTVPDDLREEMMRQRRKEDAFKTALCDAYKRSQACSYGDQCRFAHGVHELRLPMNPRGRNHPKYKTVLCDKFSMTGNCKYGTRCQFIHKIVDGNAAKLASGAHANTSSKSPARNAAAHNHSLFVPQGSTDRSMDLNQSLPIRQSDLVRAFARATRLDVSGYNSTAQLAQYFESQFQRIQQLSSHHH
Briefly: inhibitors of POS-1/mex-3 RNA binding, dose response, biochemical, fluorescence polarization (AID 1964).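 Also: purified POS-1 fused to maltose binding protein made in E. coli; potency of compounds blocking POS-1 binding to fluorescent RNA.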

The target in the next assay is Albumin (Bos taurus, UniProt P02769). Kind of assay: Counterscreen for inhibitors of T-cell receptor (TCR)-CD3 interaction: Fluorescence-based biochemical high throughput dose response assay to identify inhibitors of T-cell receptor (TCR)-CD3 interaction using a TAMRA-labeled BSA probe. Type of assay: functional.
Chain of Albumin (P02769 whole entry): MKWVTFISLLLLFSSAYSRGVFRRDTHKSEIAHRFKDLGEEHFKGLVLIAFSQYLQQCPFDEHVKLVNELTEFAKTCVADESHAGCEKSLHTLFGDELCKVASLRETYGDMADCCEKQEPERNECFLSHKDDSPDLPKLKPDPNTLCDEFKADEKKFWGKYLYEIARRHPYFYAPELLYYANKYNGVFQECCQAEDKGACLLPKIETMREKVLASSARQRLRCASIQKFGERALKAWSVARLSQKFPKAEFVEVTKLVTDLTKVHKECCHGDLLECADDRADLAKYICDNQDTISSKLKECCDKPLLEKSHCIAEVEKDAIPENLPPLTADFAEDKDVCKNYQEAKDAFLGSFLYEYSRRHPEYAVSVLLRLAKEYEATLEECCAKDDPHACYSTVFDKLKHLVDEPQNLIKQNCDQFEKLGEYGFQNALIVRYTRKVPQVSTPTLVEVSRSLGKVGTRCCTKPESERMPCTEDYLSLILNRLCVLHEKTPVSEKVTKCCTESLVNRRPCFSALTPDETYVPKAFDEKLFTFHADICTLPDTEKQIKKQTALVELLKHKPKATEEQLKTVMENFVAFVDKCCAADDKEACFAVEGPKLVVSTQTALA
The nature of assay [8]: cells. The assay is classed as functional, cell-based. This is another data set of the same source.
The nature of assay [9]: Shn3 3'UTR reporter inhibitors, dose response, cell-based, Clone20 osteoblasts, firefly luciferase, cherry-picked (AID 624132).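 Also: firefly luciferase luminescence from reporter carrying the Shn3 3'UTR in osteoblasts.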 Type of assay: functional.
Assay [10] can be described thus: human group III sPLA2 inhibitors, dose response, biochemical, QFRET, IC50 (AID 743457).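 Also: green fluorescence rise as the enzyme cleaves BODIPY PC-A2 in liposomes; potency for inhibition of the enzyme.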
Assay [11] has as its target T5, Trace amine-associated receptor 1 (Homo sapiens, UniProt Q96RJ0). Briefly: Counterscreen for agonists of the human trace amine associated receptor 1 (hTAAR1): Fluorescence-based cell-based high throughput dose response assay to identify hTAAR1 agonist that also desensitize TAAR1 receptor response. Type of assay: functional.
Assay [12] concerns the target T5, Trace amine-associated receptor 1. Kind of assay: Fluorescence-based cell-based high throughput dose response assay to identify agonists of the human trace amine associated receptor 1 (TAAR1). The assay is classed as functional.
Assay [13] in a line: cells. The assay is classed as functional, cell-based. The source holds these as a separate data set.
A short description of assay [14]: cells. Type of assay: functional, cell-based. The source holds these as a separate data set.
Assay [15] in a line: HEK293 Cytotoxicity Assay Measured in Cell-Based System Using Plate Reader - 7071-01_Inhibitor_Dose_CherryPick_Activity_Set2. The assay is classed as functional.
For the next assay, the system named is HEK293. Briefly: HEK293T cell cytotoxicity, dose response, cytotoxicity control, ATP luminescence, cherry-pick samples (AID 687005).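 Also: cells exposed to compound for 48 hours.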 Type of assay: functional, cell-based. The settings on record: Homo sapiens.
A further assay concerns HeLa. Briefly: HeLa cell cytotoxicity, dose response, cytotoxicity control, ATP luminescence, cherry-pick samples (AID 687004). The assay is classed as functional, cell-based. The settings on record: Homo sapiens.
The next assay deals with Protein Wnt-3a (Mus musculus, UniProt P27467). Kind of assay: SAR analysis of small molecule antagonists of Gli-SUFU in a Wnt3a luminescent reporter assay. Type of assay: functional.
Chain of Protein Wnt-3a (P27467 whole entry): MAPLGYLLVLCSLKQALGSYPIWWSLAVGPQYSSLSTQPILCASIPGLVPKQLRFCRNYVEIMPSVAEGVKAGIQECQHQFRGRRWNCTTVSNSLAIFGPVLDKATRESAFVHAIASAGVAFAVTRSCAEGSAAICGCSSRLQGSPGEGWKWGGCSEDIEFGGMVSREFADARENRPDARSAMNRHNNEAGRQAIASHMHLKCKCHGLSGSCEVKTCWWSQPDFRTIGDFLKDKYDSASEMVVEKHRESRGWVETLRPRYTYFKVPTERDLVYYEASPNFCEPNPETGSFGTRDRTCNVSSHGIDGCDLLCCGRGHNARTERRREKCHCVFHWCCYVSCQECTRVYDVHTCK

T5 sequence (Q96RJ0 whole entry): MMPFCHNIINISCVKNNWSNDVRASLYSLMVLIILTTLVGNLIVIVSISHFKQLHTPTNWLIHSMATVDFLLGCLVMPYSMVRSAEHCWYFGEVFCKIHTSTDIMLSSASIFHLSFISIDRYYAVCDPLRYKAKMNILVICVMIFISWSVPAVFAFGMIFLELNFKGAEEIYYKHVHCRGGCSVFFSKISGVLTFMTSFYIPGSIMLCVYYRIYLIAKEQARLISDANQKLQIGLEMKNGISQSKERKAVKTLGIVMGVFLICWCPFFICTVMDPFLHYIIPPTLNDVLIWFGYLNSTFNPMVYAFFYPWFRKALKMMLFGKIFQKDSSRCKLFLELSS
Chain of FAD-linked sulfhydryl oxidase ALR (P55789 whole entry): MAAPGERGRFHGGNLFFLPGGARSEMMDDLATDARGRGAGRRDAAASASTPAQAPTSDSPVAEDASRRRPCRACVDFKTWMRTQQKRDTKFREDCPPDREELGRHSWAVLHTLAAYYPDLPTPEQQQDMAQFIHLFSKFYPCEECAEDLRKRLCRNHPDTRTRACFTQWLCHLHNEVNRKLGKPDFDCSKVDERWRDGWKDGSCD

The AC50 is the midpoint of the concentration-response curve, whichever way the signal moves. Usually EC50 stands for the midpoint of the concentration-response curve. Broadly, the IC50 is the concentration that gives 50% inhibition. Regarding `Cc1ccc2nc(-c3ccc(O)c(O)c3)cn2c1`, the AC50 in [1] was > 70 µM (inactive); in [3], 2.47 µM (active); on Caspase-6, 12 µM (active); in [4] it was > 20 µM (inactive); in assay [5] it was 0.885 µM (active); in [9], 4.2 µM (active). Besides, the EC50 in “cells [2]” is > 350 µM (not active); in [6] it was 9.7 µM (active); in assay [7], > 75 µM (not active); in “cells [8]”, 5.03 µM (active). Moreover, the IC50 at Albumin was > 94.1 µM (inactive).

For `CCc1c(-c2nnc(S)n2Cc2ccccc2)csc1C`, the IC50 in assay [10] is > 122 µM (inactive).

`O=C(CCCCl)N1CCc2[nH]c3ccccc3c2C1`: the 50% inhibitory concentration (IC50) in [11] is 2.05 µM (active); in “cells [14]”, > 29.9 µM (inactive). For the same compound, the EC50 in [12] is 0.492 µM (active); in “cells [13]”, > 29.9 µM (inactive).

`C[C@H]1CCCCO[C@H](CN(C)C(=O)Nc2ccc(F)cc2)[C@@H](C)CN([C@@H](C)CO)C(=O)c2cc(NS(=O)(=O)c3ccc(Cl)cc3)ccc2O1`: the half-maximal activity concentration (AC50) is 30.6 µM (active) in assay [15], 30.6 µM (active) in the assay with HEK293 and 25.5 µM (active) in the assay with HeLa.

`CCCCNc1cc(NC(=O)c2ccccc2)ncn1`: the IC50 on Protein Wnt-3a is > 21.8 µM (inactive).
